The molecules below were run against Tubulin (assay: Inhibition of tubulin polymerization in Homo sapiens (human) solid tumor cells).

| SMILES | pIC50 |
| --- | --- |
| COc1ccc(/C=C(/C#N)c2cc(OC)c(OC)c(OC)c2)cc1O | 5.3 |
| COc1cc(/C=C\c2ccc(C)c(N)c2)cc(OC)c1OC | 5.4 |
| COc1ccc(/C=C(/C#N)c2cc(OC)c(OC)c(OC)c2)cc1N | 5 |
| COc1cc(/C=C\c2ccc(C)c(N=[N+]=[N-])c2)cc(OC)c1OC | 5.92 |
| COc1cc(/C=C\c2cccc(SC)c2)cc(OC)c1OC | 5.21 |
| COc1cc(/C=C\c2ccc(C)cc2)cc(OC)c1OC | 5.7 |
| COc1cc(/C=C\c2ccc(N(C)C)cc2)cc(OC)c1OC | 5.47 |
| COc1cccc(/C=C\c2cc(OC)c(OC)c(OC)c2)c1 | 5.06 |
| COc1cnc(/C=C\c2cc(OC)c(OC)c(OC)c2)cn1 | 5.05 |
| COc1ncc(/C=C\c2cc(OC)c(OC)c(OC)c2)cn1 | 5.52 |
| COc1cc(/C=C\c2ccc(Cl)c(N)c2)cc(OC)c1OC | 5.52 |
| CCCOc1ccc(/C=C\c2cc(OC)c(OC)c(OC)c2)cc1 | 5.22 |
| COc1cc(/C=C\c2ccc(Br)cc2)cc(OC)c1OC | 5.51 |
| COc1cc(/C=C\c2ccccc2)cc(OC)c1OC | 4.44 |
| COc1cc(/C=C\c2ccc(OC(C)=O)cc2)cc(OC)c1OC | 4.54 |

Second part, the molecule after the results:

| pIC50 | SMILES |
| --- | --- |
| 5.11 | COc1ccc(Cc2cc(OC)c(OC)c(OC)c2)cc1O |
| 4.26 | COc1ccc(CCCCc2cc(OC)c(OC)c(OC)c2)cc1O |
| 5.4 | COc1ccc(/C=C(/C=O)c2cc(OC)c(OC)c(OC)c2)cc1 |
| 5.22 | COc1ccc(/C=C(/C#N)c2cc(OC)c(OC)c(OC)c2)cc1 |
| 5.48 | COc1ccc(CCc2cc(OC)c(OC)c(OC)c2)cc1O |
| 5.7 | COc1ccc(/C=C\c2cc(OC)c(OC)c(OC)c2)cn1 |
| 4.65 | COc1ccc(OCc2cc(OC)c(OC)c(OC)c2)cc1O |
| 5 | COc1ccc(\C=C/C=C/C=C/c2cc(OC)c(OC)c(OC)c2)cc1O |
| 4.66 | COc1ccc(C(O)C(O)c2cc(OC)c(OC)c(OC)c2)cc1O (centres undefined) |
| 5.05 | COc1ccc(NCc2cc(OC)c(OC)c(OC)c2)cc1O.Cl |
| 5.46 | COc1cc(CNc2ccc(C)c(O)c2)cc(OC)c1OC.Cl |
| 4 | COc1cc2ccc3cc(O)c(C)cc3c2c(OC)c1OC |
| 5.3 | COc1ccc(/C(C#N)=C\c2cc(OC)c(OC)c(OC)c2)cc1N |
| 5.52 | COc1ccc(/C=C(/C(N)=O)c2cc(OC)c(OC)c(OC)c2)cc1N |
| 5.52 | COc1ccc(/C=C\c2cc(OC)c(OC)c(OC)c2)nc1 |
| 5.46 | COc1ccc(COc2cc(OC)c(OC)c(OC)c2)cc1O |
| 4.79 | COc1ccc(Oc2cc(OC)c(OC)c(OC)c2)cc1O |
| 5.7 | COc1cc(/C=C\c2ccn(C)c(=O)c2)cc(OC)c1OC |
| 4.64 | COc1ccc(NCc2cc(OC)c(OC)c(OC)c2)cc1 |

— ChEMBL document CHEMBL3046474, “Development of robust QSAR model using rapid overlay of crystal structures (ROCS) based alignment: a test case of Tubulin inhibitors” (Med Chem Res, 2013)
